# Test results reported in patent US9790209B2, “Kinase inhibitors” (Respivert Limited, priority 2012, dated 2017).
# Experiments:
# GSK3α = GSK3α (Homo sapiens (Human), UniProt P49840); experiment: GSK 3α enzyme inhibition (Method 2), Z-LYTE FRET; assay type: biochemical
# Method: (§1) The enzyme inhibitory activities of compounds disclosed herein are determined by FRET using synthetic peptides labelled with both donor and acceptor fluorophores (Z-LYTE, Invitrogen Ltd., Paisley, UK).
# The inhibitory activities of compounds of the invention against the GSK 3α enzyme isoform (Invitrogen), are evaluated by determining the level of activation/phosphorylation of the target peptide. The GSK3-α protein (500 ng/mL, 2.5 μL) is mixed with the test compound (2.5 μL at either 4 μg/mL, 0.4 μg/mL, 0.04 μg/mL, or 0.004 μg/mL) for 2 hr at RT. The FRET peptide (8 μM, 2.5 μL), which is a phosphorylation target for GSK3α, and ATP (40 μM, 2.5 μL) are then added to the enzyme/compound mixture and the resulting mixture incubated for 1 hr. Development reagent (protease, 5 μL) is added for 1 hr prior to detection in a fluorescence microplate reader (Varioskan® Flash, ThermoFisher Scientific).
# (§2) In all cases, the site-specific protease cleaves non-phosphorylated peptide only and eliminates the FRET signal. Phosphorylation levels of each reaction are calculated using the ratio of coumarin emission (donor) over fluorescein emission (acceptor), for which high ratios indicate high phosphorylation and low ratios indicate low phosphorylation levels. The percentage inhibition of each reaction is calculated relative to non-inhibited control and the 50% inhibitory concentration (IC50 value) is then calculated from the concentration-response curve.
# This method follows the same steps as Method 1 above, but utilises a shorter period of mixing of the test compound (105 minutes instead of 2 hours) with the GSK3-α protein.
# p38 MAPKα = p38 MAPKα (Homo sapiens (Human), UniProt Q16539); experiment: p38 MAPKα enzyme inhibition (Method 2), Z-LYTE FRET; assay type: biochemical
# Chain of p38 MAPKα (Q16539 whole entry): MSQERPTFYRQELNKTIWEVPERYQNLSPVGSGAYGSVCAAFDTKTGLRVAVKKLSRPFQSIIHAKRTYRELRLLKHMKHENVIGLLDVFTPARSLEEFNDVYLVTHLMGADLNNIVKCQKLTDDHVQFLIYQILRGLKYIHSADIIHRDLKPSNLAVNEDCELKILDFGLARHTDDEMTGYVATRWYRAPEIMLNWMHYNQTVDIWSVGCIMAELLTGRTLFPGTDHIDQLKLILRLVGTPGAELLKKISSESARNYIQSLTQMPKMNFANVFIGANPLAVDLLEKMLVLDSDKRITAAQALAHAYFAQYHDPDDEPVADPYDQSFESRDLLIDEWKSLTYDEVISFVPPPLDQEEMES
# Method: as §1
# The inhibitory activities of test compounds against the p38 MAPKα isoform (MAPK14: Invitrogen), are evaluated indirectly by determining the level of activation/phosphorylation of the down-stream molecule, MAPKAP-K2. The p38 MAPKα protein (80 ng/mL, 2.5 μL) is mixed with the test compound (2.5 μL of either 4 μg/mL, 0.4 μg/mL, 0.04 μg/mL or 0.004 μg/mL) for 2 hr at RT. […] The mixture is incubated for 1 hr at RT. Development reagent (protease, […]) is added for 1 hr prior to detection in a fluorescence microplate reader (Varioskan® Flash, ThermoFisher Scientific).
# This method follows the same steps as Method 1 above, but utilises a higher concentration of the p38 MAPKα protein (2.5 μL of 200 ng/mL protein instead of 2.5 μL of 80 ng/mL protein) for mixing with the test compound.
# as §2
# [1] = tested on: intestinal mucosa biopsies from the inflamed regions of the colon of ulcerative colitis patients; experiment: Human biopsy assay (ex-vivo cytokine release); assay type: cell-based; conditions: 1 μg/mL, 24 hours; for Cytokine (IL-1β, IL-6 and IL-8) release compared to the DMSO control: biopsies from ulcerative colitis patients; for IL-1β release from biopsies of UC patients / IL-6 release from biopsies of UC patients / IL-8 release from biopsies of UC patients: relative to DMSO control = 100%
# Method: Intestinal mucosa biopsies are obtained from the inflamed regions of the colon of IBD patients. The biopsy material is cut into small pieces (2-3 mm) and placed on steel grids in an organ culture chamber at 37° C. in a 5% CO2/95% O2 atmosphere in serum-free media. DMSO control or test compounds at the desired concentration are added to the tissue and incubated for 24 hr in the organ culture chamber. The supernatant is harvested for determination of IL-6, IL-8, IL-1P and TNFα levels by R&D ELISA.
# Percentage inhibition of cytokine release by the test compounds is calculated relative to the cytokine release determined for the DMSO control (100%).
# c-Src = c-Src (Homo sapiens (Human), UniProt P12931); experiment: c-Src enzyme inhibition, Z-LYTE FRET; assay type: biochemical
# Chain of c-Src (P12931 whole entry, looked up): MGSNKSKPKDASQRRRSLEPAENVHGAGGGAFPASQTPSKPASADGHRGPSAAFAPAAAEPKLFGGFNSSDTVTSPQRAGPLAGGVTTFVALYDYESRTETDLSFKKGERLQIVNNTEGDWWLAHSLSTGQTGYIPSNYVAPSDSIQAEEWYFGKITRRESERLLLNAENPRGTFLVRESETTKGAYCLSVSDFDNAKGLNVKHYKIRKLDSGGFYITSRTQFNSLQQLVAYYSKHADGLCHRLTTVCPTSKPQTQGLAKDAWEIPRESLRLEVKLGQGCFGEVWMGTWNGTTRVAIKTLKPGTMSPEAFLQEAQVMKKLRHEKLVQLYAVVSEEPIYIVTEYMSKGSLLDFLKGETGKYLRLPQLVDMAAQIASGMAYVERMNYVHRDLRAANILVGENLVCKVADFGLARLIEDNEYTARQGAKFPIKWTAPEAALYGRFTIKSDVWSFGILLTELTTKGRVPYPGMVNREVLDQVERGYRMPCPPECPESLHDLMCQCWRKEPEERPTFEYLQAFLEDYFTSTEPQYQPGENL
# Method: as §1
# (§3) The inhibitory activities of compounds of the invention against c-Src and Syk enzymes (Invitrogen), are evaluated in a similar fashion to that described hereinabove. The relevant enzyme (3000 ng/mL or 2000 ng/mL respectively, 2.5 μL) is incubated with the test compound (either 4 μg/mL, 0.4 μg/mL, 0.04 μg/mL, or 0.004 μg/mL, 2.5 μL each) for 2 hr at RT. The FRET peptides (8 μM. 2.5 μL), and appropriate ATP solutions (2.5 μL, 800 μM for c-Src, and 60 μM ATP for Syk) are then added to the enzymes/compound mixtures and incubated for 1 hr. Development reagent (protease, 5 μL) is added for 1 hr prior to detection in a fluorescence microplate reader (Varioskan® Flash, ThermoFisher Scientific).
# as §2
# PBMCs [2] = experiment: LPS-induced TNFα/IL-8 release in PBMC cells; assay type: cell-based; conditions: Homo sapiens, LPS-stimulated PBMCs, IL-8, read-out: IC50 Values for Inhibition of Cytokine Release PBMCs IL-8
# Method: Peripheral blood mononuclear cells (PBMCs) from healthy subjects are separated from whole blood using a density gradient (Lymphoprep, Axis-Shield Healthcare). The PBMCs are seeded in 96 well plates and treated with compounds at the desired concentration for 2 hours before addition of 1 ng/mL LPS (Escherichia Coli 0111:B4 from Sigma Aldrich) for 24 hours under normal tissue culture conditions (37° C., 5% CO2). The supernatant is harvested for determination of IL-8 and TNFα concentrations by sandwich ELISA (Duo-set, R&D systems) and read on the fluorescence microplate reader (Varioskan® Flash, ThermoFisher Scientific). The concentration at 50% inhibition (IC50) of IL-8 and TNFα production is calculated from the dose response curve.
# PBMCs [3] = experiment: IL-2 and IFN gamma release in CD3/CD28 stimulated PBMC cells; assay type: cell-based; conditions: Homo sapiens
# Method: PBMCs from healthy subjects are separated from whole blood using a density gradient (Lymphoprep, Axis-Shield Healthcare). Cells are added to a 96 well plate pre-coated with a mixture of CD3/CD38 monoclonal antibodies (0.3 μg/mL eBioscience and 3 μg/mL BD Pharmingen respectively). Compound at the desired concentration is then added to the wells and the plate left for 3 days under normal tissue culture conditions. Supernatants are harvested and IL-2 and IFN gamma release determined by Sandwich ELISA (Duo-set, R&D System). The IC50 is determined from the dose response curve.
# HT29 cells = experiment: IL-1-induced IL-8 release in HT29 cells; assay type: cell-based; conditions: Homo sapiens, HT-29, IL-1β-stimulated HT29 cells, read-out: IC50 Values for Inhibition of Cytokine Release HT29 cells IL-8
# Method: HT29 cells, a human colon adenocarcinoma cell line, are plated in a 96 well plate (24 hrs) and pre-treated with compounds at the desired concentration for 2 hours before addition of 5 ng/mL of IL-1β (Abcam) for 24 hours. Supernatants are harvested for IL-8 quantification by Sandwich ELISA (Duo-set, R&D System). The IC50 is determined from the dose response curve.
# Syk = Syk (Homo sapiens (Human), UniProt P43405); experiment: Syk enzyme inhibition, Z-LYTE FRET; assay type: biochemical
# Method: as §1, §3, §2
# [4] = IFNγ, read-out: IC50 Values for Inhibition of Cytokine Release PBMCs IFNγ
# [5] = IL-2, read-out: IC50 Values for Inhibition of Cytokine Release PBMCs IL-2
# Chain of GSK3α (P49840 whole entry): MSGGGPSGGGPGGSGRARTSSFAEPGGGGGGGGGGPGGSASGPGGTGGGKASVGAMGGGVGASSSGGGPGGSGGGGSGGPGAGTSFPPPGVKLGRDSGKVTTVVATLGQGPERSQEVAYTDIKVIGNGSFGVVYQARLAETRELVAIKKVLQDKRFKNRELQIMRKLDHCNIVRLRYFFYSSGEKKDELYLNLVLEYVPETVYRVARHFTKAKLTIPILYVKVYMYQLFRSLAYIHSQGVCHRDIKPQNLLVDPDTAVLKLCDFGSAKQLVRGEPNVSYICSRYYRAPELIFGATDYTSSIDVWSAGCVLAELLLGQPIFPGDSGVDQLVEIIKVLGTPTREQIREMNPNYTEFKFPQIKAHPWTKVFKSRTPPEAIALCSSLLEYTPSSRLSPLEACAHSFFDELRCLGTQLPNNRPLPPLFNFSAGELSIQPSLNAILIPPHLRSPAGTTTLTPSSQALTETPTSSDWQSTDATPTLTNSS
Structure (SMILES),IC50 (GSK3α) [µM],IC50 (p38 MAPKα) [nM],"Cytokine (IL-1β, IL-6 and IL-8) release compared to the DMSO control [1]",IL-1β release from biopsies of UC patients [1] [%],IL-6 release from biopsies of UC patients [1] [%],IL-8 release from biopsies of UC patients [1] [%],IC50 (c-Src) [nM],IC50 (PBMCs [2]) [nM],IC50 (PBMCs [3]; [4]) [nM],IC50 (PBMCs [3]; [5]) [nM],IC50 (HT29 cells) [nM],IC50 (Syk) [nM]
"C#CC(C)(C)c1cc(NC(=O)Nc2ccc(Oc3ccnc(Nc4cc(C)c5[nH]ncc5c4)n3)c3ccccc23)n(-c2ccc(C)cc2)n1 [Example 2, 1-(4-((2-((7-Methyl-1H-indazol-5-yl)amino)pyrimidin-4-yl)oxy)naphthalen-1-yl)-3-(3-(2-methylbut-3-yn-2-yl)-1-(p-tolyl)-1H-pyrazol-5-yl)urea]",> 10,380,significantly inhibited,20 ± 13,37 ± 41,22 ± 21,24,2,3.6,18,3.2,50
"C#CC(C)(C)c1cc(NC(=O)Nc2ccc(Oc3ccnc(Nc4cc(OC)cc(OCCOCCOCCOC)c4)n3)c3ccccc23)n(-c2ccc(C)cc2)n1 [Example 13, 1-(4-((2-((3-Methoxy-5-(2-(2-(2-methoxyethoxy)ethoxy)ethoxy)phenyl)amino)pyrimidin-4-yl)oxy)naphthalen-1-yl)-3-(3-(2-methylbut-3-yn-2-yl)-1-(p-tolyl)-1H-pyrazol-5-yl)urea]",6.4,152,significantly inhibited,3 ± 3,37 ± 52,7 ± 8,16,1.7,1.3,58.8,1.7,61
